Measured values published in US5292498A, “Method of treating lung disease with uridine triphosphates” (The University of North Carolina At Chapel Hill, priority 1991, dated 1994).

How the values were obtained:
[1] = system: normal human nasal epithelium; assay: Bioelectric studies (short circuit current, Isc) of normal human nasal epithelium in Ussing chambers; assay type: cell-based; details: for rank order of potency for Cl^- secretion: FIG. 2; for rank order of potency for increase in Isc / character of concentration-effect curve including 10^-3 M / character of log concentration-effect curve / change in ion transport rates: basolateral surface; for rank order of potency for increase in Isc / change in ion transport rates: FIG. 1; for character of concentration-effect curve including 10^-3 M: 10^-3 M drug considered; for character of log concentration-effect curve: 10^-7 to 10^-4 M; for increase in Isc: dipyridamole 10^-6 M; for change in ion transport rates: compared to ATP curve
Procedure: (§1) Freshly excised human nasal epithelium from normal or cystic fibrosis subjects was grown in primary culture in F-12, hormone-supplemented medium in accordance with known procedures. See R. Wu et al., Am. Rev. Respir. Dis. 132, 311-320 (1985). For [Ca^2+ ]i measurements, cultures were grown on non-fluorescent vitrogen substrates on glass coverslips. Cultures for electrophysiologic studies were grown to confluence on permeable collagen matrix supports (CMS), allowing addition of agonists to the basolateral or apical surface of the epithelial sheet.
(§2) Confluent monolayers of primary human nasal epithelium were mounted in modified Ussing chambers in accordance with known procedures. See, e.g., R. Boucher et al., J. Physiol. (Lond.) 405, 77-103 (1988); M. Knowles et al., Science 221, 1067-1070 (1983). The studies described below were performed under short circuit current conditions at 37° C., and in some studies, amiloride was added to the apical bath (10^-4 M) to block transepithelial sodium transport. Changes in transepithelial potential difference (Vt), resistance (Rt) and short circuit current (Isc) were measured in response to addition of various nucleotides. Each cultured preparation was exposed to only one concentration of an agonist on either the basolateral or apical surface to avoid the tachyphylaxis observed in preliminary cumulative dose response studies. To construct concentration-effect relationships of responses to nucleotides, it was assumed that the same maximum response to an agonist could be induced from each tissue culture preparation from the same individual.
The effects of extracellular ATP on normal human nasal epithelium were investigated employing bioelectric measurements of ion transport activity when the nucleotide was applied to either the apical or basolateral membrane. […] In general, the change in Isc induced by application of ATP to the apical or the basolateral side returned to baseline or below within 5 minutes after addition of agonist. […] Apical pretreatment with amiloride (10^-4 M) removes active Na^+ absorption as a component of the Isc so that the residual Isc reflects a Cl^- secretory current (R. Boucher et al., J. Clin. Invest. 78, 1245-1252 (1986); N. Willumsen et al., Am. J. Physiol. 256, C1033-C1044 (1989)).
A concentration-effect relationship was found when ATP was applied to normal human nasal epithelium under basal conditions (data not shown). Comparisons were made between responses of tissues from different donors based on the peak change in Isc following ATP application. The curve describes the mean peak change in Isc in response to log increasing concentrations of ATP applied to the apical or basolateral surface.
Concentration-effect relationships were also found for ATP applied to the apical or basolateral membrane of amiloride-pretreated tissues (data not shown). Again, the nucleotide's effect on ion transport was examined as the mean peak change in Isc after ATP application.
(§3) The purinergic receptor subtype(s) linked to regulation of ion transport of human nasal epithelium were characterized by obtaining concentration-effect relationships for a variety of purine and pyrimidine agonists in preparations derived from normal and CF patients. We characterized receptor subtype(s) on the […] surface by measuring nucleotide effect on basal Na^+ transport rates. Because therapies designed to induce Cl^- secretion might best be delivered by the aerosol route, receptor subtype characterization on the apical barrier was performed in the presence of amiloride. The effect of extracellular nucleotides on ion transport is reported as the percent change in Isc from control values when applied to the basolateral or apical surface of the culture. Basal pre-agonist currents were similar for tissues in each concentration group.

[2] = system: normal human nasal epithelial cells; assay: Intracellular calcium [Ca^2+ ]i in single normal human nasal epithelial cells (Fura-2); assay type: cell-based; details: concentration-effect curves, FIG. 3
Procedure: as §1
(§4) Primary human nasal epithelial cells grown to confluence on vitrogen coated coverslips were loaded with a final concentration of 3 μM Fura-2/AM at 37° C. for 30 minutes. The cells were then washed in NaCl Ringer and mounted in a chamber for measurements of fluorescence. To reduce the rate of leakage of Fura-2 from the cell into the extracellular space and avoid time-dependent compartmentalization of the probe, all measurements of [Ca^2+ ]i were performed at 25° C. At this temperature,no vesicular bright spots indicative of compartmentalization of the probe were observed.
Measurements of [Ca^2+ ]i in single human nasal epithelial cells were obtained with a modular microspectrofluorimeter (SPEX Industries, Inc., Edison, N.J.) attached to a Zeiss Axiovert IM 35 microscope. The system was equipped with a xenon lamp, beam splitter, two monochromators and a rotating chopper mirror that permitted excitation of cell fluorescence at alternating wavelengths of 340 and 380 nm (emission ≥450 nm). The fluorescent signal from a single cell was measured with a photometer equipped with a pinhole (spot diameter of 3-5 μm) that excluded signals from adjacent cells.
After agonist was added, the fluorescent signal was quenched by a NaCl ringer solution containing 1.5×10^-4 M digitonin and 10^-3 M MnCl2. The remaining signal at each excitation wavelength, equivalent to the background fluorescence in non loaded cells, was subtracted from data from Fura-2/AM loaded cells before the ratio (340 nm/380 nm) was taken. The 340 nm/380 nm ratio was converted to an actual [Ca^2+ ]i measurement by using the external calibration standards and the formula derived by G. Grynkiewicz et al., J. Biol. Chem. 260, 3440-3450 (1985), used with dual wavelength measurements: [Ca^2+ ]i =K [(Rx --Ro)/(Rs --Rx)], with Ro and Rs representing the ratios at 0 Ca^2+ and saturating Ca^2+, respectively. Rx represents the experimental ratio.
To investigate whether changes in [Ca^2+ ]i might be related to regulation of ion transport, receptor characterization was performed by measuring changes in [Ca^2+ ]i in response to a number of nucleotide drugs. Concentration-effect curves for agonists active at P2x, P2y subtype or UTP sensitive receptors and other purine or pyrimidine receptor agonists were generated, measuring mean change in [Ca^2+ ]i in response to agonist concentration. Data are shown in FIG. 3, which gives log concentration-effect relationships of purinergic and pyrimidinergic compounds on [Ca^2+ ]i (mean change in [Ca^2+ ]i over basal levels).

[3] = 25° C.; read-out: Kd (effective dissociation constant for Fura-2); cited from earlier work
[4] = system: CF human nasal epithelium; assay: Bioelectric studies (Isc) of cystic fibrosis (CF) human nasal epithelium; assay type: cell-based; details: for Isc response tracing: apical, amiloride-pretreated, FIG. 4C
Procedure: as §1, §2, §3
Availability of Cystic Fibrosis (CF) tissues is limited, and our investigation of effects of nucleotides was restricted to examining regulation of Cl^- secretion rates and [Ca^2+ ]i levels by ATP and UTP.

[5] = system: CF nasal epithelial cells; assay: Intracellular calcium [Ca^2+ ]i in single CF nasal epithelial cells (Fura-2); assay type: cell-based, human; details: FIG. 6
Procedure: as §1, with “132, 311-320 (1985).” left out
as §4, with “C.” for “C. At this temperature,no vesicular bright spots indicative of compartmentalization of the probe were observed.”
Measurements of [Ca^2+ ]i in single human nasal epithelial cells were obtained with a modular microspectrofluorimeter (SPEX Industries, Inc., Edison, N.J.) attached to a Zeiss Axiovert IM 35 microscope. […] The fluorescent signal from a single cell was measured with a photometer equipped with a pinhole (spot diameter of 3-5 μm) that excluded signals from adjacent cells. […]

[6] = apical surface, amiloride-pretreated

Compound	rank order of potency for Cl^- secretion [1, 6]	rank order of potency for increase in Isc [1]	effectiveness for raising [Ca^2+ ]i [2]	character of concentration-effect curve including 10^-3 M [1]	character of log concentration-effect curve [1]	further results
CSc1nc(N)c2ncn([C@@H]3O[C@H](COP(=O)(O)OP(=O)(O)OP(=O)(O)O)[C@@H](O)[C@H]3O)c2n1 [2MeSATP, 2-methylthio ATP]	ATP≥UTP>ATPγS>ADP>2MeSATP>ADPβS	2MeSATP>UTP≥ATP>ATPγS>ADP>ADPβS	little effect			
O=c1[nH]c(=O)n([C@@H]2O[C@H](COP(=O)(O)OP(=O)(O)OP(=O)(O)O)[C@@H](O)[C@H]2O)cc1Br [5BrUTP, 5-bromo-uridine 5'-triphosphate]			essentially as effective as UTP			
Nc1ncnc2c1ncn2[C@@H]1O[C@H](COP(=O)(O)OP(=O)(O)O)[C@@H](O)[C@H]1O [ADP]	ATP≥UTP>ATPγS>ADP>2MeSATP>ADPβS	2MeSATP>UTP≥ATP>ATPγS>ADP>ADPβS				
Nc1ncnc2c1ncn2[C@@H]1O[C@H](COP(=O)(O)OP(O)(O)=S)[C@@H](O)[C@H]1O [ADPβS]	ATP≥UTP>ATPγS>ADP>2MeSATP>ADPβS	2MeSATP>UTP≥ATP>ATPγS>ADP>ADPβS	little effect	biphasic in character	sigmoidal character	
Nc1ncnc2c1ncn2[C@@H]1O[C@H](COP(=O)(O)OP(=O)(O)OP(O)(O)=S)[C@@H](O)[C@H]1O [ATPγS]	ATP≥UTP>ATPγS>ADP>2MeSATP>ADPβS	2MeSATP>UTP≥ATP>ATPγS>ADP>ADPβS	most effective agonists	biphasic in character	sigmoidal character	
Cc1ccc(N(CC(=O)O)CC(=O)O)c(OCCOc2cc3cc(-c4ncc(C(=O)O)o4)oc3cc2N(CC(=O)O)CC(=O)O)c1 [Fura-2]						Kd [3]: 157 nM
O=c1ccn([C@@H]2O[C@H](COP(=O)(O)OP(=O)(O)OP(=O)(O)O)[C@@H](O)[C@H]2O)c(=O)[nH]1 [UTP, uridine 5'-triphosphate]	ATP≥UTP>ATPγS>ADP>2MeSATP>ADPβS	2MeSATP>UTP≥ATP>ATPγS>ADP>ADPβS	most effective agonists	biphasic in character	sigmoidal character	Isc response tracing ([4]; UTP 10^-4 M as printed): Cl^- secretory response; Isc response tracing ([4]; UTP 10^-6 M as printed): Cl^- secretory response; change in Isc over basal levels ([4]; apical surface, amiloride-pretreated CF tissues): routinely stimulated increases in Cl^- secretion; [Ca^2+ ]i response in CF tissues [5]: Increases in [Ca^2+ ]i
Nc1ncnc2c1ncn2[C@@H]1O[C@H](CO)[C@@H](O)[C@H]1O [adenosine]						increase in Isc ([1]; 10^-4 M, apical surface, amiloride-pretreated, n=8): 10±6%; increase in Isc ([1]; 10^-5 M or 10^-4 M, basolateral barrier, n=8 each dose): less than 5%; increase in Isc ([1]; 10^-5 M, apical surface, amiloride-pretreated, n=7): 10±7%; change in Isc compared to ATP ([1]; following preincubation with dipyridamole 10^-6 M): only small and variable changes in Isc compared to ATP
Nc1ncnc2c1ncn2[C@@H]1O[C@H](COP(=O)(O)CP(=O)(O)OP(=O)(O)O)[C@@H](O)[C@H]1O [αβMeATP, α,β-methylene ATP]			little effect			change in ion transport rates [1]: little change in ion transport rates
Nc1ncnc2c1ncn2[C@@H]1O[C@H](COP(=O)(O)OP(=O)(O)CP(=O)(O)O)[C@@H](O)[C@H]1O [βγMeATP, β,γ-methylene ATP]			little effect			change in ion transport rates [1]: little change in ion transport rates
